{"source": "patent US6025142A", "about": "“Hydrophobic u-PAR binding site” (Boehringer Mannheim GmbH, priority 1994, dated 2000)", "key": {"[1]": {"biological_target": "T1, u-PAR (Homo sapiens, UniProt Q03405)", "T1 construct": "made in house; host or cells: Chinese hamster ovary (CHO) cells, conditioned media", "T1 sequence (Q03405 23-299)": "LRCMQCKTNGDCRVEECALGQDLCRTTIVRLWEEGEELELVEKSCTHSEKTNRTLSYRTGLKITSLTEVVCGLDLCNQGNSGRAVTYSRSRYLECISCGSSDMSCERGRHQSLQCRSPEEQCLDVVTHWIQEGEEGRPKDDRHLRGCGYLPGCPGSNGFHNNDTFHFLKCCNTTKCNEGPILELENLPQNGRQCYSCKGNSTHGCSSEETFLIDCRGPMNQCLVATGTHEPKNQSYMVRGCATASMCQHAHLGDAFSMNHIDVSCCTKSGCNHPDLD", "assay": "protease cleavage of u-PAR monitored by ANS fluorescence", "assay_type": "biochemical", "procedure": "Fluorescence measurements. […] All fluorescence measurements were made using 2 μM u-PAR and 10 μM ANS in PBS at 25° C. unless otherwise stated."}, "[2]": {"biological_target": "T1, u-PAR", "assay": "fluorescence titration of u-PAR with ANS (Scatchard)", "assay_type": "binding", "conditions": "intact u-PAR", "procedure": "ANS titration. The stoichiometry and affinity of ANS binding to u-PAR was determined by titrating fixed concentrations of u-PAR with ANS up to a concentration of 100 μM. The observed fluorescence intensities were corrected for the dilution effect of the added ANS, the low background fluorescence of ANS in buffer and for the inner filter effect of the varying concentration of ANS. The latter was performed using the relationship\nwhere ε386 is the molar extinction coefficient of ANS at half the path length of the fluorescence cuvette, ANSo is the total ANS concentration, and Fobs and Fcorr are the observed and corrected fluorescence intensities. The concentration of bound ANS was determined from the relationship\nwhere Fmax is the theoretical fluorescence of a molar solution if all were bound to u-PAR. This parameter was calculated by titration of a protein concentration sufficiently high to ensure that essentially all added ANS is bound in the initial linear part of the binding curve. The data generated in this way were analyzed by the method of Scatchard."}, "[3]": {"biological_target": "complement component C3b", "conditions": "Isenman, 1983; read-out: Kd of ANS binding to complement component C3b; cited from earlier work"}, "[4]": {"biological_target": "apohemoglobin", "conditions": "Stryer, 1965; read-out: Kd of ANS binding to apohemoglobin; cited from earlier work"}}, "data": [{"compound": "chymotrypsin", "values": [{"measurement": "reduction in the ANS fluorescence after cleavage of intact u-PAR", "setting": "[1]", "value": 75, "unit": "%"}]}, {"compound": "O=S(=O)(O)c1cccc2cccc(Nc3ccccc3)c12", "note": "[ANS, 8-anilino-1-naphthalene sulfonic acid]", "values": [{"measurement": "enhancement of ANS fluorescence intensity on binding to u-PAR", "setting": "[2]", "value": "> 10", "unit": "fold"}, {"measurement": "stoichiometry of ANS binding", "setting": "[2]", "value": "1.09±0.17", "unit": "moles/mole u-PAR"}, {"measurement": "Kd", "setting": "[2]; PBS, 25° C., read-out: dissociation constant of ANS binding to u-PAR", "value": "33.8 ± 3.2", "unit": "µM"}, {"measurement": "Kd", "setting": "[3]", "value": 40, "unit": "µM"}, {"measurement": "Kd", "setting": "[4]", "value": 55, "unit": "µM"}]}]}
